According to patent publication US9394261B2, “Aryl amine substituted pyrimidine and quinazoline and their use as anticancer drugs” (National Yang-Ming University, priority 2012, dated 2016):
“Also recorded” adds a separate entry of the source.

What was measured:
EGFR = target: T1, EGFR (Homo sapiens, UniProt P00533, DEL746-750); assay: western blot of EGFR phosphorylation in PC9 cells; assay type: cell-based; settings: PC9 cells, 2 μM, 24 h (FIG. 3A)
T1 construct: endogenous in cells; host or cells: PC9 cells
Method: 40 μg/per lane of cell lysates were analyzed by western blot. The antibodies of actin, EGFR, and p-EGFR were from Cell Signaling (Danvers, Mass.). In FIGS. 1A-1B, actin lines are used to show an internal standard for the loading control in this western blot.

[1] = system: SK-Hep-1 cell lines (a hepatocellular carcinoma (HCC) cell); assay: MTT assay, growth inhibition of SK-Hep-1 cells; assay type: cell-based; settings: SK-Hep-1 cells, 48 hours
Method: MTT assay was used to measure growth inhibition. […] MTT (3-(4,5-dimethylthiazol-2-yl)-2,5-diphenyl tetrazolium bromide) assay was performed as follow.
(§1) The effect of individual test compounds on cell viability was assessed by using the MTT in 6 replicates. Sk-Hep-1 cells were seeded and incubated in 96-well, flat-bottomed plates for 24 hours, and were exposed to various concentrations of test compounds dissolved in DMSO (final concentration, 0.1%) for 48 hours. Controls received DMSO vehicle at a concentration equal to that in drug-treated cells. The medium was removed, replaced by 200 μL of 0.5 mg/mL MTT in 10% fetal bovine serum containing DMEM (Dulbecco's Modified Eagle Medium), and cells were incubated in the carbon dioxide incubator at 37° C. for 2 hours. Supernatants were removed from the wells and the reduced MTT dye was solubilized in 100 μL/well DMSO. Absorbance at 570 nm was determined on a plate reader.
The SK-Hep1 cells were then analyzed with western blot assay and MTT assay.

Hep3B cell lines = assay: MTT assay, growth inhibition of Hep3B cells; assay type: cell-based; settings: Homo sapiens
Method: as §1
Next, compounds 19, and 34-36 were screened against a panel of Hep3B cell lines for growth-inhibitory activities. […] Compounds 87-90, 95 and 96 were screened against a panel of PLC5 cell lines for growth-inhibitory activities.

CIP2A [2] = assay: western blot of CIP2A expression in SK-Hep1 cells; assay type: cell-based; settings: SK-Hep-1 cells
Method: Accordingly, the pyrimidine and quinazoline derivatives above were screened by using western blot analysis for expression of CIP2A in SK-Hep1 cells. Before the western blot analysis, the SK-Hep-1 cells were maintained in DMEM supplemented with 10% FBS, 100 units/mL penicillin G, 100 μg/mL streptomycin sulfate and 25 μg/mL amphotericin B in a 37° C. humidified incubator in an atmosphere of 5% CO2 in air. In this western blot analysis, SK-Hep1 cells were respectively treated with compounds 1-24 at a concentration of 20 μM for 24 hours. In FIG. 2, the mono-substituted pyrimidine derivatives (compounds 1-5) have no appreciable change in CIP2A expression.
Cell viability, measured by MTT assay, and CIP2A expressions, analyzed by western blot, in response to compound 19 or erlotinib treatment in SK-Hep1 cell line were analyzed. SK-Hep-1 cells were treated with erlotinib and compound 19 at 2.5 and 5 μM for 24 h, respectively. The SK-Hep1 cells were then analyzed with western blot assay and MTT assay.
(§2) Next, compounds […], 19, and 22 were used to explore whether downregulation of CIP2A lead to suppression of p-Akt. FIG. 4A is the western blot analysis of the effect of the compounds 4, 19, and 22 on phosphorylation of Akt, PARP and Actin. In this western blot analysis, SK-Hep-1 cells were respectively treated with compounds 4, 19, and 22 at a concentration of 5 μM for 30 hours. […] That is, compound 19 and 22 can substantially increase apoptotic cell death to inhibit cancer growth.

CIP2A [3] = assay: western blot of CIP2A expression in H358, H460 and H322 lung cancer cells; assay type: cell-based; settings: 5 μM (FIG. 3C)
Method: (§3) Similarly, CIP2A expressions analyzed by western blot were also performed for lung cancer cells, H358, H460, and H322 cell lines. Moreover, drug-induced apoptotic cell death was also assessed by western blot analysis of activated caspases cleaved poly(ADP-ribose)polymerase (PARP). The cleavage of PARP is explained as follow. The compound induces apoptotic signal which cleave the procaspase 3 to the active caspase 3. The activation of caspase 3 further cleaves PARP and inactivate PAPR function. The events are thought to be required in late apoptosis. Therefore, the PARP cleavage is an indicator of apoptosis.
(§4) In the PARP row of FIG. 3C, the upper bands represented the uncleavage PARP, and the middle band and lower band represented cleavage PARP.

PARP [4] = assay: western blot of PARP cleavage in H358, H460 and H322 lung cancer cells; assay type: cell-based; settings: 5 μM (FIG. 3C)
Method: as §3, §4

p-Akt = assay: western blot of p-Akt in SK-Hep-1 cells; assay type: cell-based; settings: SK-Hep-1 cells, 5 μM, 30 hours (FIG. 4A)
Method: as §2
In other words, in the present of okadaic acid, the activation of PP2A by compound 19-incuced CIP2A inactivation is blocked.

PARP [5] = assay: western blot of PARP cleavage in SK-Hep-1 cells; assay type: cell-based; settings: 5 μM, 30 hours (FIG. 4A)
Method: as §2

SK-Hep-1 cells = assay: apoptotic cell death by flow cytometry (sub-G1) and cell death detection ELISA; assay type: cell-based; settings: 2.5 and 5 μM, 24 h (FIG. 4B-4C)
Method: FIG. 4B is flow cytometry analysis of cell death induced by compounds 4, 19, and 22 at 5 μM, after 24 h of treatment in SK-Hep-1 cells. The apoptotic cells were assessed by flow cytometry (sub-G1). After Sk-Hep-1 cells were treated with compounds 4, 19, and 22, Sk-Hep-1 cells were trypsinized, collected by centrifugation and resuspended in PBS. After centrifugation, the cells were washed in PBS and resuspended in […] (PI) staining solution. Specimens were incubated in the dark for 30 min at 37° C. and then analyzed with an EPICS Profile II flow cytometer (Coulter Corp., Hialeah, Fla.). All experiments were performed in triplicate
FIG. 4C is ELISA analysis of cell death to analyze effects of compounds 4, 19, and 22 on DNA fragmentation in SK-Hep-1 cells. The effect of compounds 4, 19 and 22 on cell viability was assessed by a cell death detection ELISA kit (Roche Applied Science, Mannheim, Germany). SK-Hep-1 cells were treated with compounds 4 and 19 at 22 at 2.5 and 5 μM for 24 h. The cells were collected and assayed according to the standard protocol provided by the manufacturer.

[6] = system: SK-Hep-1 cell lines (a hepatocellular carcinoma (HCC) cell); assay: MTT assay, growth inhibition of SK-Hep-1 cells; assay type: cell-based; settings: 2.5 and 5 μM, 24 h (FIG. 3B)
PLC5 xenograft tumor = PLC5 xenograft tumor growth in nude mice; settings: erlotinib 50 mg/kg/day; for tumor inhibition, PLC5 cell: p.o. daily, after 21 days of treatment, compounds 8 and 19 20 mg/kg/day
Method: (§5) The mice were housed in groups and maintained under standard laboratory conditions on a 12-hour light-dark cycle. They were given access to sterilized food and water ad libitum. All experimental procedures using these mice were performed in accordance with protocols approved by the Institutional Laboratory Animal Care and Use Committee of National Taiwan University. Each mouse was inoculated s.c. in the dorsal flank with 1×10^6 HCC cells suspended in 0.1 ml of serum-free medium containing 50% Matrigel (BD Biosciences, Bedford, Mass.). […] Controls received vehicle.
(§6) Tumor growth data points are reported as mean tumor volume±SE.

Huh-7 xenograft tumor = Huh-7 xenograft tumor growth in nude mice; settings: erlotinib 50 mg/kg/day; for effect on Huh-7 tumor growth, in words: p.o. daily for 3 weeks, compounds 20 mg/kg/day (FIG. 7A-7B); for tumor inhibition, Huh7 cell: p.o. daily, after 21 days of treatment, compounds 8 and 19 20 mg/kg/day
Method: as §5, §6

[7] = tumor-bearing mice, p.o. daily for 3 weeks; erlotinib 50 mg/kg/day, compounds 8 and 19 20 mg/kg/day

T1 sequence (P00533 with tags, fused parts or gaps DEL746-750): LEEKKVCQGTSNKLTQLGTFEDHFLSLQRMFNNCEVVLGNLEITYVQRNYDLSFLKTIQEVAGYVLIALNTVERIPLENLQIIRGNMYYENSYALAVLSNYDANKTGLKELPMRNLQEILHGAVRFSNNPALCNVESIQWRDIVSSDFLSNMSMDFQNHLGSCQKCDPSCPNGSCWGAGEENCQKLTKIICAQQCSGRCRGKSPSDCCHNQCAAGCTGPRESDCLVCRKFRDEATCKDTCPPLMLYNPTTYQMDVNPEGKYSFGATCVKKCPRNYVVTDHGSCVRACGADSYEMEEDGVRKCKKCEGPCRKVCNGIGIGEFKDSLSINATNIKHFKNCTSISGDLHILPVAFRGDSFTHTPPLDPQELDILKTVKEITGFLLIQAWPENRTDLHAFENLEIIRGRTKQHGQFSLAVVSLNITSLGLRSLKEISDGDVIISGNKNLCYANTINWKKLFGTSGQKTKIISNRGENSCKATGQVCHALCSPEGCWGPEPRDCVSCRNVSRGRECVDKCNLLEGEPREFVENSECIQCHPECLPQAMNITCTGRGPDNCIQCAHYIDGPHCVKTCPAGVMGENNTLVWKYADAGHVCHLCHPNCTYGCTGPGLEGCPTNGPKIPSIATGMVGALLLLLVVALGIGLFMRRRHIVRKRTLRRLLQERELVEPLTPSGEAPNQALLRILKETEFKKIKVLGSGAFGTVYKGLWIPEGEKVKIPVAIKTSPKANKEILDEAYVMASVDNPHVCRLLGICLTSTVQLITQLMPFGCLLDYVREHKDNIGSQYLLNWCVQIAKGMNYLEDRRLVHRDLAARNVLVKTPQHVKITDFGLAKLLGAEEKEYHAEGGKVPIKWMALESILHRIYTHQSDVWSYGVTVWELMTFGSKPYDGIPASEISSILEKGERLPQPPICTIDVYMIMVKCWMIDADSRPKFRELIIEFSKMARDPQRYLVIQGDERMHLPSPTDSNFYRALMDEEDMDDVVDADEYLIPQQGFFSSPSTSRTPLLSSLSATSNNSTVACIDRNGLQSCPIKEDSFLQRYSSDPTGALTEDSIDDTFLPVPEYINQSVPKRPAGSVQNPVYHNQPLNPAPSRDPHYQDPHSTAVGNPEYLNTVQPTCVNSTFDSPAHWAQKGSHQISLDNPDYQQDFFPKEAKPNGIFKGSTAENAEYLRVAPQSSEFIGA

EGFR phosphorylation inhibition (western blot) (EGFR)	IC50 [1] [nM]	IC50 (Hep3B cell lines) [nM]	Compound	inhibiting CIP2A expression (CIP2A [2]; 5 μM, 30 hours (FIG. 4A))	CIP2A expression (CIP2A [2]; 2.5 and 5 μM, 24 h (FIG. 3B))	CIP2A expression (CIP2A [3])	PARP cleavage (PARP [4])	p-Akt level (p-Akt)	PARP cleavage (PARP [5])	cell apoptosis (sub-G1 flow cytometry, DNA fragmentation ELISA) (SK-Hep-1 cells)	cell viability (MTT) [6]	effect on PLC5 tumor growth, in words (PLC5 xenograft tumor; p.o. daily for 3 weeks, compounds 20 mg/kg/day (FIG. 6A-6B))	tumor inhibition, PLC5 cell (PLC5 xenograft tumor) [%]	effect on Huh-7 tumor growth, in words (Huh-7 xenograft tumor)	tumor inhibition, Huh7 cell (Huh-7 xenograft tumor) [%]	tolerability (signs of toxicity, body weight, necropsy) [7]
no inhibitory effect on EGFR kinase	2800	1280	C#Cc1cccc(Nc2nc(Nc3ccc(Oc4ccccc4)cc3)nc3cc(OC)c(OC)cc23)c1 [Compound 19, N^4-(3-Ethynylphenyl)-6,7-dimethoxy-N^2-(4-phenoxyphenyl)quinazoline-2,4-diamine]	inhibiting CIP2A expression; also recorded: most potent inhibition of CIP2A expression	reduce the CIP2A expression	down-regulate the expression of CIP2A	induce the cleavage of PARP	reducing p-Akt level; also recorded: reduced Akt phosphorylation	inducing PARP cleavage	induced cell apoptosis	reduce the CIP2A expression and the cell viability in a dosage dependent manner	significantly reduced the growth of tumor; also recorded: better inhibitory effect on PLC5 tumors than erlotinib; also recorded: significantly reducing the growth of tumor	60.6	better inhibitory effect on Huh-7 tumors than erlotinib	34.8	–
–	–	–	C#Cc1cccc(Nc2ncnc3cc(OCCOC)c(OCCOC)cc23)c1 [erlotinib, reference compound]	–	–	–	–	–	–	–	–	–	50.0	no effect on tumor growth	8.8	tolerated the treatments well without observable signs of toxicity
